According to patent US5863950A, “HIV protease inhibitors” (Agouron Pharmaceuticals, Inc., priority 1994, dated 1999):
Values after ≈ are worked out from the molar mass of the structure shown. Where two headings read alike, the source gives them in different places.

How the values were obtained:
HIV-1 (CEM cells) = assay: Anti-HIV MTT assay, inhibition of HIV-induced cell killing, CEM cells; format: cell-based, HIV-1 isolates IIIB and/or RF; details: Human immunodeficiency virus 1, CCRF-CEM, 144 h, CEM cell line (first position), 6 days, 37° C., read-out: Viral CEM
Excerpt: (§1) SRI has an established program for the primary antiviral analysis of compounds in microtiter assays which measure the ability of a selected compound to inhibit HIV-induced cell killing. This assay involves the conversion of the tetrazolium dye MTT to a colored formazan product by mitochondrial enzymes in metabolically active cells. This assay system is presently used at SRI to screen over 30,000 compounds per year. Briefly, the assay involves the infection of CEM or MT2 cells in round bottom 96-well plates. The compound of interest is added just prior to infection. Following 6 days of incubation at 37° C. the plates are stained with MTT. The results of the assay are quantitated spectrophotometrically on a Molecular Devices Vmax plate reader. The data is analyzed by linear regression utilizing an in-house software program to calculate antiviral activity. (IC25, IC50, IC95) and toxicity (TC25, TC50, TC95) as well as other values.
(§2) Primary antiviral assays are routinely performed in CEM or MT-2 cells.
(§3) Drugs will be solubilized in the appropriate vehicle such as distilled water or DMSO if necessary. Latex gloves, lab coats and masks are used during all phases of the handling process to prevent exposure to potentially harmful agents. The drug is prepared at the appropriate concentration and stored at -20° C. until used by the screening laboratory. The first dilution of each compound is made in a dilution tube with medium to yield a concentration two-fold that of the highest test concentration. Sterile titer tubes are then used to make serial one half-log dilutions of each compound. Following drug dilution, the diluted compound is added to the appropriate well of a 96-well microtiter plate. Up to 12 dilutions can be assayed conveniently in triplicate on a single plate with all appropriate controls including cell control, virus control, toxicity control, drug color control, medium control and plastic (background) control. When testing includes only six dilutions, two drugs can be assayed on a single microtiter plate. The drugs are added to the plate in a final volume of 100 microliters.
(§4) During the time the drug dilutions are prepared, cells are washed and counted. Viability is monitored by trypan blue dye exclusion and assays are not performed if the viability falls below 90%. Cells are maintained in an exponential growth phase and are split 1:2 on the day prior to assay to assure exponential growth rate.
(§5) For the primary screen, the cell lines utilized are CEM and MT-2. Unless otherwise indicated, the medium used is RPMI 1640 with 10% heat-inactivated fetal calf serum (FBS), glutamine and antibiotics.
(§6) Cells are propagated at 37° C. in an atmosphere of 5% CO2 in air. The virus employed for this work is HIV-1 isolates IIIB and/or RF, which are prepared by an acute infection process.
(§7) Briefly, virus-infected cells are pelleted on a daily basis beginning at three days post-infection until the virus has killed all of the cells in the culture. Reverse transcriptase activity and p24 ELISA are used to identify pools with the greatest amount of virus.
(§8) These 24-hour harvests are pooled, filtered and frozen at -90° C. Prior to use in the assay, the infectious pool of virus is titered on all available cell lines in order to determine the amount of virus required in the antiviral assay.
(§9) In general, pools produced by the acute infection method require the addition of one microliter of infectious virus per well resulting in the screening of drugs at a multiplicity of infection of 0.01. In this manner enough virus is prepared and frozen to complete over one thousand microtiter plates, allowing the testing of up to two thousand compounds from a single stock of infectious virus. The use of a single stock of virus for a long period of testing has very favorable effects on the repeatability of the assay systems.
(§10) Virus infection of the CEM and MT-2 cells for the antiviral assay is carried out in a bulk infection process. […]

HIV-1 (MT-2 cells) = assay: Anti-HIV MTT assay, inhibition of HIV-induced cell killing, MT-2 cells; format: cell-based, HIV-1 isolates IIIB and/or RF; details: Human immunodeficiency virus 1, MT2, 144 h; MT-2 cells (second position), 6 days, 37° C., MTT; read-out: Viral MT-2
Excerpt: as §1, §2, §3, §4, §5, §6, §7, §8, §9, §10

HIV-1 protease = molecular target: T1, HIV-1 protease (Human immunodeficiency virus type 1 group M subtype B, UniProt P04585); assay: biochemical; format: biochemical
T1 construct: purified HIV-1 protease
Experimental: 1. Proteolytic activity of purified HIV-1 protease was routinely measured using the chromogenic assay developed by Richards et al. (J. Biol. Chem. 265: 7733 (1990)). Synthetic peptide His-Lys-Ala-Arg-Val-Leu-Phe (pNO2)-Glu-Ala-Nle-Ser-NH2 (American Peptide Company) was used as the substrate.
2. The assay was carried out in 0.5M NaCl, 50 mM MES pH 5.6, 2% DMSO (dimethylsulfoxide) at 37° C. Cleavage of the scissile bond between leucine and paranitro-phenylalanine (Phe(pNO2)) was assayed by spectrophotometric monitoring of the decrease in absorbance at 305 nm. Initial velocity was determined as the rate of decline of absorbance during the first 100 seconds of reaction.
3. […] Between 15-25 concentrations of inhibitor were added and velocity of reaction was measured at each of the concentrations, as described above.
4. Inhibition constants were calculated using the method of Jackson et al. (Adv. in Enzyme Regulation 22: 187 (1984)).

[1] = 0.5M NaCl, 50 mM MES pH 5.6, 2% DMSO, 37° C., 200 μM substrate

Row | Compound | IC50 (HIV-1 protease) | Ki (HIV-1 protease) | IC50 (HIV-1 protease; [1]) | Ki (HIV-1 protease; [1]) | IC50 (HIV-1 (CEM cells)) | IC50 (HIV-1 (MT-2 cells))
1 | CC(C)(C)N(CCO)C(=O)c1ccccc1CCC(O)Cc1ccccc1C(=O)N(CCO)C(C)(C)C (stereo not drawn) [Example 1] | 1030 nM | 835 nM | – | – | 18.6 µg/mL (≈ 36.3 µM) | 23 µg/mL (≈ 44.9 µM)
2 | CC(C)(C)N(CCO)C(=O)c1ccccc1CCC(O)Cc1ccccc1C(=O)N(CCO)C1(C)CCCC1 (stereo not drawn) [Example 5] | – | – | 950 nM | 840 nM | 17.4 µg/mL (≈ 32.3 µM) | 32 µg/mL (≈ 59.4 µM)
3 | CC(C)(C)NC(=O)c1c(CCC(O)Cc2ccccc2C(=O)N(Cc2ncc[nH]2)C(C)(C)C)ccc2ccccc12 (stereo not drawn) [Example 12] | – | – | 820 nM | 790 nM | 29.5 µg/mL (≈ 53.2 µM) | –
4 | CCC1(N(CCO)C(=O)c2ccccc2CCC(O)Cc2ccc(C)cc2C(=O)N(CCO)C(C)(C)c2ccccc2)CCCC1 (stereo not drawn) [Example 18] | – | – | – | – | 0.49 µg/mL (≈ 0.779 µM) | 0.53 µg/mL (≈ 0.843 µM)
5 | CC(C)(C)N(CCO)C(=O)c1ccccc1CCC(O)Cc1ccccc1C(=O)N(Cc1ncc[nH]1)C(C)(C)c1ccccc1 (stereo not drawn) [Example 72] | – | – | 326 nM | 100 nM | 5.54 µg/mL (≈ 9.07 µM) | 17.9 µg/mL (≈ 29.3 µM)
6 | CC(C)(C)NC(=O)c1cc(Sc2ccccc2)ccc1CCC(O)Cc1ccccc1C(=O)N(CCO)C(C)(C)C (stereo not drawn) [Example 73] | – | – | 680 nM | 717 nM | > 10 µg/mL | > 10 µg/mL
7 | CC(C)(C)N(CCO)C(=O)c1ccccc1CCC(O)Cc1ccccc1C(=O)N(CCO)C(C)(C)c1ccncc1 (stereo not drawn) [Example 77] | – | – | 1230 nM | 1010 nM | 7.57 µg/mL (≈ 13.1 µM) | 16.4 µg/mL (≈ 28.5 µM)
8 | CC(C)(C)N(CCO)C(=O)c1ccccc1CCC(=O)C(F)(F)c1ccccc1C(=O)N(CCO)C(C)(C)c1ccccc1 [Example 78] | – | – | 420 nM | 320 nM | > 10 µg/mL | 6.64 µg/mL (≈ 10.9 µM)

The next lines start with results.

Row | IC50 (HIV-1 protease) | Ki (HIV-1 protease) | IC50 (HIV-1 protease; [1]) | Ki (HIV-1 protease; [1]) | Compound | IC50 (HIV-1 (CEM cells)) | IC50 (HIV-1 (MT-2 cells))
9 | – | – | 169 nM | 152 nM | Cc1ccc(CCC(O)Cc2ccccc2C(=O)N(CCO)C(C)(C)c2ccccc2)c(C(=O)N(CCO)C(C)(C)C)c1 (stereo not drawn) [Example 62] | 2.86 µg/mL (≈ 4.86 µM) | 4.98 µg/mL (≈ 8.46 µM)
10 | – | – | 82 nM | 31 nM | CC(C)(c1ccccc1)N(CCO)C(=O)c1ccccc1CCC(O)Cc1ccccc1C(=O)N(CCO)C(C)(C)c1ccccc1 (stereo not drawn) [Example 65] | 0.89 µg/mL (≈ 1.4 µM) | 1.76 µg/mL (≈ 2.76 µM)
11 | – | – | 250 nM | 145 nM | CC(C)(C)N(CCO)C(=O)c1ccccc1CCC(O)Cc1ccccc1C(=O)N(CCO)C(C)(C)c1ccc2ccccc2c1 (stereo not drawn) [Example 66] | 4.53 µg/mL (≈ 7.25 µM) | 12.7 µg/mL (≈ 20.3 µM)
12 | – | – | 180 nM | 21 nM | Cc1ccc(CC(O)CCc2ccccc2C(=O)N(CCO)C(C)(C)C)c(C(=O)N(CCO)C(C)(C)c2ccccc2)c1 (stereo not drawn) [Example 74] | 3.69 µg/mL (≈ 6.27 µM) | 5.54 µg/mL (≈ 9.41 µM)
13 | – | – | 89 nM | 12 nM | Cc1ccc(CC(O)CCc2ccccc2C(=O)N(CCO)C(C)(C)c2ccccc2)c(C(=O)N(CCO)C(C)(C)c2ccccc2)c1 (stereo not drawn) [Example 80] | 0.53 µg/mL (≈ 0.814 µM) | 0.68 µg/mL (≈ 1.04 µM)
14 | – | – | 230 nM | 64 nM | CC(C)(C)N(CCO)C(=O)c1ccccc1CCC(O)Cc1ccccc1C(=O)N(CCO)C12CCCCC1CCC2 (stereo not drawn) [Example 81] | 4.39 µg/mL (≈ 7.58 µM) | 5.58 µg/mL (≈ 9.64 µM)
15 | – | – | 104 nM | 17 nM | CCC1(N(CCO)C(=O)c2ccccc2CCC(O)Cc2ccccc2C(=O)N(CCO)C(C)(C)c2ccccc2)CCCC1 (stereo not drawn) [Example 82] | 0.75 µg/mL (≈ 1.22 µM) | 0.64 µg/mL (≈ 1.04 µM)
